# Assay results published in paper PMC7456963, “HPLC-Based Activity Profiling for Antiprotozoal Compounds in Croton gratissimus and Cuscuta hyalina” (Frontiers in Pharmacology, 2020).
# Read-outs that look alike come from different tables or passages of the source.
# How the values were obtained:
# [1] = In vitro cytotoxicity with L-6 cells (resazurin); assay type: cell-based, rat; conditions: rat, L6 cells, 70 h + 2 h resazurin, mean ± absolute deviation
# Description: (§1) Assays were performed in 96-well microtiter plates, each well containing 100 µl of RPMI 1640 medium supplemented with 1% L-glutamine (200 mM) and 10% fetal bovine serum, and 4000 L-6 cells (a primary cell line derived from rat skeletal myoblasts) ([Ahmed et al., 1994]). Serial drug dilutions of 11 three-fold dilution steps covering a range from 100 to 0.002 μg/ml were prepared 24 h post seeding L-6 cells. The plates were incubated for 70 h and inspected under an inverted microscope to assure growth of the controls and sterile conditions. 10 µl of resazurin was then added to each well and the plates incubated for another 2 h. Then the plates were read with a Spectramax Gemini XS microplate fluorometer (Molecular Devices Cooperation, Sunnyvale, CA, USA) using an excitation wavelength of 536 nm and an emission wavelength of 588 nm. The IC50 values were calculated by linear regression and four-parameter logistic regression from the sigmoidal dose inhibition curves using SoftmaxPro software (Molecular Devices Cooperation, Sunnyvale, CA, USA). Podophyllotoxin (Sigma P4405) was used as positive control. All assays were performed in two independent replicates at least. Activities of all compounds were expressed in µM using the formula: […]
# [2] = tested on: T. b. rhodesiense STIB 900 bloodstream forms; assay: Activity against Trypanosoma brucei rhodesiense STIB900 (resazurin); assay type: cell-based; conditions: for IC50: Trypanosoma brucei, 70 h, STIB 900 bloodstream forms, 70 h + resazurin, mean ± absolute deviation; for Selectivity index (SI): IC50 in L6 cells divided by IC50 in T. b. rhodesiense: L6 cells vs T. b. rhodesiense STIB 900
# Description: The stock was originally isolated from a patient and adapted to axenic culture conditions after several mouse passages and cloned. Minimum Essential Medium (50 µl) supplemented with 25 mM HEPES, 1 g/L additional glucose, 1% MEM non-essential amino acids (100×), 0.2 mM 2-mercaptoethanol, 1 mM Na-pyruvate ([Baltz et al., 1985]) and 15% heat inactivated horse serum was added to each well of a 96-well microtiter plate. Serial drug dilutions of eleven 3-fold dilution steps covering a range from 100 to 0.002 μg/ml were prepared. Then 4 × 10^3 bloodstream forms of T. b. rhodesiense STIB 900 in 50 µL were added to each well and the plate incubated for 70 h at 37°C and under a 5% CO2 atmosphere. 10 µL resazurin solution (resazurin, 12.5 mg in 100 ml double-distilled water) was then added to each well and incubation continued for a further 2–4 h ([Räz et al., 1997]). Plates were read with a Spectramax Gemini XS microplate fluorometer (Molecular Devices Cooperation, Sunnyvale, CA, USA) using an excitation wavelength of 536 nm and an emission wavelength of 588 nm. […] Melarsoprol (Arsobal Sanofi-Aventis, received from WHO) was used as control. Assays were performed in two independent replicates at least.
# [3] = tested on: L. donovani amastigotes in mouse peritoneal macrophages; assay: Activity against Leishmania donovani intramacrophage amastigotes (high-content imaging); assay type: cell-based; conditions: Leishmania donovani, Peritoneal macrophage, 96 h, read-out: IC50 L. donovani Intramacrophage
# Description: (§2) Macrophages were isolated from the mouse (CDI) peritoneal cavity ([Zhang et al., 2008]) using 2% starch solution as eliciting agent injected 2 day prior to cell harvest. Animal work was carried out according to the rules and regulations for the protection of animal rights (“Tierschutzverordnung”) of the Swiss “Bundesamt für Veterinärwesen” (License number 2374). Mouse peritoneal macrophages (4 × 10^4 in 100 µL RPMI 1640 medium with 10% heat-inactivated FBS) were seeded into wells of a 96-well plate. After 24 h, 2 × 10^5 amastigote L. donovani in 100 µL were added. The amastigotes were taken from an axenic amastigote culture grown at pH 5.4. The medium containing free amastigote forms was removed after 24 h and replaced with fresh medium. The washing step was repeated and afterward the serial drug dilution was prepared with at least 6 dilution steps. Compounds were dissolved in DMSO at 10 mg/ml and further diluted in medium. After 96 h of incubation at 37°C under a 5% CO2 atmosphere, the medium was removed, and cells were fixed by adding 50 µl 4% formaldehyde solution followed by a staining with a 5 µM DRAQ5 solution. Plates were imaged in ImageXpress XLS (MD) microscope using a 20× air objective (635 nm excitation: 690/50 emission). 9 images were collected per well. Automated image analysis was performed with a script developed on Meta Xpress Software (MD). Three outputs were provided for each well: i) number of host cell nuclei; ii) numbers of infected and non-infected host cells; iii) number of parasite nuclei per infected host cell. The IC50 values were calculated based on the infection rate and the numbers of intracellular amastigotes. The cytotoxicity to macrophages was determined in parallel, and IC50 values were calculated based on the numbers of surviving, uninfected macrophages. Miltefosine was used as control. Assays were performed in two independent replicates at least.
# [4] = Cytotoxicity to macrophages determined in parallel to the intramacrophage assay; assay type: cell-based; conditions: CDI, surviving, uninfected mouse peritoneal macrophages
# Description: as §2
# [5] = tested on: P. falciparum NF54 erythrocytic stages; assay: Activity against Plasmodium falciparum (3H-hypoxanthine incorporation); assay type: cell-based; conditions: for Selectivity index (SI): IC50 in L6 cells divided by IC50 in P. falciparum: L6 cells vs P. falciparum NF54
# Description: In vitro activity against the erythrocytic stages of P. falciparum was determined using a ^3H-hypoxanthine incorporation assay ([Desjardins et al., 1979]), using the drug sensitive NF54 strain ([Ponnudurai et al., 1981]). Compounds were dissolved in DMSO at 10 mg/ml and further diluted in medium before addition to parasite cultures incubated in RPMI 1640 medium without hypoxanthine, supplemented with HEPES (5.94 g/L), NaHCO3 (2.1 g/L), neomycin (100 U/ml), Albumax^R (5 g/L), and washed human red cells A^+ at 2.5% haematocrit (0.3% parasitemia). Serial drug dilutions of 11 three-fold dilution steps covering a range from 100 to 0.002 μg/ml were prepared. The 96-well plates were incubated in a humidified atmosphere at 37°C; 4% CO2, 3% O2, 93% N2. After 48 h, 50 μl of ^3H-hypoxanthine (=0.5 μCi) was added to each well of the plate. The plates were incubated for a further 24 h under the same conditions. The plates were then harvested with a Betaplate™ cell harvester (Wallac, Zurich, Switzerland), the red blood cells transferred onto a glass fibre filter, and lysed with distilled water. The dried filters were inserted into a plastic foil with 10 ml of scintillation fluid and counted in a Betaplate™ liquid scintillation counter (Wallac, Zurich, Switzerland). IC50 values were calculated from sigmoidal inhibition curves by linear regression using Microsoft Excel. Chloroquine (Sigma C6628) was used as control. Assays were performed in two independent replicates at least.
# [6] = tested on: L. donovani strain MHOM/ET/67/L82 axenic amastigotes; assay: Activity against Leishmania donovani axenic amastigotes (resazurin); assay type: cell-based; conditions: for IC50: Leishmania donovani, mean ± absolute deviation, at least two replicates; for Selectivity index (SI): IC50 in L6 cells divided by IC50 in L. donovani axenic amastigotes: L6 cells vs axenic L. donovani
# Description: Amastigotes of L. donovani strain MHOM/ET/67/L82 were grown under an atmosphere of 5% CO2 in air in axenic culture at 37°C in SM medium ([Cunningham, 1977]) at pH 5.4 supplemented with 10% heat-inactivated fetal bovine serum. 50 µL of culture medium was added in the wells of a 96-well plate and serial drug dilutions of eleven three-fold dilution steps covering a final range from 100 to 0.002 μg/ml were prepared. 50 µL culture medium with 2 × 10^5 amastigotes from axenic culture were added to each well. After 70 h of incubation the plates were inspected under an inverted microscope to assure growth of the controls and sterile conditions. 10 μl of resazurin (12.5 mg resazurin dissolved in 100 ml distilled water) were added to each well and the plates incubated for another 2 h. Then the plates were read with a Spectramax Gemini XS microplate fluorometer (Molecular Devices Cooperation, Sunnyvale, CA, USA) using an excitation wavelength of 536 nm and an emission wavelength of 588 nm. Data were analyzed using the software Softmax Pro (Molecular Devices Cooperation, Sunnyvale, CA, USA). Decrease of fluorescence (= inhibition) was expressed as percentage of the fluorescence of untreated control cultures and plotted against the drug concentrations. From the sigmoidal inhibition curves the IC50 values were calculated. Miltefosine was used as positive control drug. Assays were performed in two independent replicates at least.
# [7] = tested on: L-6 cells (rat skeletal myoblasts); assay: In vitro cytotoxicity with L-6 cells (resazurin); assay type: cell-based; conditions: 70 h + 2 h resazurin, mean ± absolute deviation
# Description: as §1
# [8] = amastigotes in mouse peritoneal macrophages
# [9] = Plasmodium falciparum, NF54, 72 h, read-out: IC50 P. falciparum, NF54 drug sensitive strain, erythrocytic stages, 72 h, mean ± absolute deviation
# [10] = pH 5.4, axenic amastigotes, MHOM/ET/67/L82, pH 5.4, 70 h + 2 h resazurin, read-out: IC50 L. donovani Axenic
# [11] = Plasmodium falciparum, NF54, 72 h, NF54 drug sensitive strain, erythrocytic stages, 72 h, mean ± absolute deviation, read-out: IC50 P. falciparum
smiles,measurement,setting,value
"COc1cc([C@@H]2c3cc4c(cc3[C@H](O)[C@H]3COC(=O)[C@H]23)OCO4)cc(OC)c1OC [Podophyllotoxin, reference compound]",IC50 at 70 h,[1],0.03 ± 0.005 µM
"COc1ccc(CC2c3cc(OC)c(OC)cc3CCN2C)cc1OC (stereo not drawn) [Compound 9, Laudanosine]",IC50,[2],> 80 µM
same,IC50,[3]; [8],> 186 µM
same,IC50 at 70 h,[1],280 µM
same,IC50 at 96 h,[4],> 245 µM
same,IC50,[5]; [9],76.1 ± 21.6 µM
same,IC50,[6]; [10],> 150 µM
"COc1ccc(C[C@@H]2c3cc(OC)c(OC)cc3CCN2C)cc1O [Compound 8, Laudanine]",IC50,[2],> 80 µM
same,IC50,[3],> 292 µM
same,IC50 at 70 h,[1],292 µM
same,IC50 at 96 h,[4],> 200 µM
same,IC50,[5]; [9],78.6 ± 0.4 µM
same,IC50,"[6]; pH 5.4, read-out: IC50 L. donovani Axenic, axenic amastigotes, MHOM/ET/67/L82, pH 5.4, 70 h + 2 h resazurin",> 150 µM
"COc1cc(-c2oc3cc(O)cc(O)c3c(=O)c2O)ccc1O [Compound 11, Isorhamnetin]",Selectivity index (SI): IC50 in L6 cells divided by IC50 in T. b. rhodesiense,[2],5.0
same,IC50,[2],25.9 ± 5.4 µM
same,IC50,[3]; [8],> 210 µM
same,IC50 at 70 h,[1],130 ± 58.7 µM
same,IC50 at 96 h,[4],> 199 µM
same,Selectivity index (SI): IC50 in L6 cells divided by IC50 in P. falciparum,[5],6.0
same,IC50,[5]; [9],~20 µM
same,IC50,"[5]; read-out: IC50 P. falciparum, NF54 drug sensitive strain, erythrocytic stages, 72 h, mean ± absolute deviation",21.6 ± 0.7 µM
same,Selectivity index (SI): IC50 in L6 cells divided by IC50 in L. donovani axenic amastigotes,[6],6.0
same,IC50,[6]; [10],21.7 ± 7.9 µM
"COc1cc(O)c2c(=O)c(OC)c(-c3ccc(OC)c(OC)c3)oc2c1 [Compound 3, Retusin]",Selectivity index (SI): IC50 in L6 cells divided by IC50 in T. b. rhodesiense,[2],2.6
same,IC50,[2],> 80 µM
same,IC50,[3]; [8],> 186 µM
same,IC50 at 70 h,[1],215 ± 4.7 µM
same,IC50 at 96 h,[4],173 µM
same,Selectivity index (SI): IC50 in L6 cells divided by IC50 in P. falciparum,[5],9.2
same,IC50,[5]; [11],23.4 ± 3.8 µM
same,Selectivity index (SI): IC50 in L6 cells divided by IC50 in L. donovani axenic amastigotes,[6],6.3
same,IC50,[6]; [10],34.1 ± 4.7 µM
"COc1cc(C(=O)O)ccc1O [Compound 7, 3-Methoxy-4-hydroxybenzoic acid]",IC50,[2],38.6 ± 5.9 µM
same,IC50,[3]; [8],> 595 µM
same,IC50 at 70 h,[1],595 µM
same,IC50 at 96 h,[4],> 500 µM
same,IC50 P. falciparum,"[5]; NF54 drug sensitive strain, erythrocytic stages, 72 h, mean ± absolute deviation",least active
same,IC50,[5]; [11],138 ± 12.2 µM
same,IC50,[6]; [10],153 ± 45.5 µM
"O=C1C[C@@H](c2ccc(O)cc2)Oc2cc(O)cc(O)c21 [Compound 4, Naringenin]",Selectivity index (SI): IC50 in L6 cells divided by IC50 in T. b. rhodesiense,[2],1.3
same,IC50,[3]; [8],> 121 µM
same,IC50 at 70 h,[1]; L-6 cells (rat skeletal myoblasts),233 ± 36.9 µM
same,IC50 at 96 h,[4],333 ± 18.2 µM
same,Selectivity index (SI): IC50 in L6 cells divided by IC50 in P. falciparum,[5],3.2
same,IC50,[5]; [11],73.2 ± 5.9 µM
same,Selectivity index (SI): IC50 in L6 cells divided by IC50 in L. donovani axenic amastigotes,[6],5.6
same,IC50,[6]; [10],41.8 ± 9.3 µM
"COc1ccc(-c2oc3cc(O)cc(O)c3c(=O)c2OC)cc1O [Compound 5, Quercetin-3,4′-dimethylether]",Selectivity index (SI): IC50 in L6 cells divided by IC50 in T. b. rhodesiense,[2],2.9
same,IC50,[2],6.6 ± 3.2 µM
same,IC50,[3]; [8],> 33.3 µM
same,IC50 L6 cells (cytotoxicity),[7],significant cytotoxicity
same,IC50 at 96 h,[4],42.7 ± 12.1 µM
same,Selectivity index (SI): IC50 in L6 cells divided by IC50 in P. falciparum,[5],1.1
same,IC50,"[5]; NF54 drug sensitive strain, erythrocytic stages, 72 h, mean ± absolute deviation, read-out: IC50 P. falciparum",18.2 ± 6.7 µM
same,IC50,[5]; [11],< 20 µM
same,Selectivity index (SI): IC50 in L6 cells divided by IC50 in L. donovani axenic amastigotes,[6],1.3
same,IC50,[6]; [10],15 to 22 µM
